From PMC9585589 (ACS Chemical Neuroscience, 2022)
Read-outs that look alike come from different tables or passages of the source.

What was measured:
[1] = biological target: human CB1 receptor (Homo sapiens, UniProt P21554); experiment: biochemical; type: binding; set-up: purchased Merck HTS019M; host or cells: Chem-1 cells
Excerpt: Compounds selected for the in vitro binding assay from the first iteration of VS were purchased via MolPort, SIA, Riga, Latvia and Biopurify Phytochemicals Ltd., Chengdu, China. Compounds from the second iteration were purchased from MolPort, SIA, Riga, Latvia and Chemspace, SIA, Riga, Latvia (Supporting Information S3). […] Membranes from cells overexpressing the human CB1 receptor (ChemiScreen CB1 Cannabinoid Receptor Membrane Preparation, cat. no. HTS019M) as well as MgCl2, CaCl2, Trizma Base, NaCl, polyethylenimine (PEI) and dimethyl sulfoxide (DMSO) were purchased from Merck (USA). Bovine serum albumin (BSA) was obtained from Pol-Aura (Poland).
Compounds were dissolved in 50% DMSO and added to the reaction mixture at 10 concentrations equally spaced on a log scale (10^–10 to 10^–4.5 M). The final DMSO concentration was 5%. […] The reaction mixture (500 μL) was incubated for 1.5 h at 30°C . Before harvesting, Whatman GF/B Filter Paper (Brandel, USA) was presoaked with 0.33% PEI buffer for 30 min. and then washed with 2 ml of 50 mM Tris-HCl buffer (pH = 7.4) and 0.5% BSA to minimize non-specific binding. The reaction was terminated by depositing the samples onto GF/B filter paper with the Brandel M-24 Cell Harvester (Brandel, USA). Samples were then rapidly washed 3 times with 2 ml of ice-cold wash buffer (50 mM Tris-HCl pH 7.4, 500 mM NaCl) to separate the bound radioligand from free. Filters were then air-dried for 1 h at 60°C . After drying, filter discs were placed on a flexible 24-well plate and 500 μL of EcoScint-20 scintillant was added to each well. Plates were counted (2 min. per well) in a Trilux MicroBeta^2 2450 scintillation counter (Perkin Elmer, USA). Data were analyzed with GraphPad Prism 5.0 software.[89]

[2] = biological target: human CB1; conditions: one per compound, cited from earlier work
[3] = [3H]CP-55,940 displacement, membranes of Chem-1 cells expressing human CB1
[4] = CB1 agonists, Table S8, ref SI (1)-(19)
[5] = CB1 antagonists/inverse agonists, Table S9, ref SI (20)-(38)
[6] = [3H]CP-55,940 displacement, membranes of Chem-1 cells expressing human CB1, read-out: pKi ± SEM (converted)

human CB1 receptor, sequence (P21554 whole entry): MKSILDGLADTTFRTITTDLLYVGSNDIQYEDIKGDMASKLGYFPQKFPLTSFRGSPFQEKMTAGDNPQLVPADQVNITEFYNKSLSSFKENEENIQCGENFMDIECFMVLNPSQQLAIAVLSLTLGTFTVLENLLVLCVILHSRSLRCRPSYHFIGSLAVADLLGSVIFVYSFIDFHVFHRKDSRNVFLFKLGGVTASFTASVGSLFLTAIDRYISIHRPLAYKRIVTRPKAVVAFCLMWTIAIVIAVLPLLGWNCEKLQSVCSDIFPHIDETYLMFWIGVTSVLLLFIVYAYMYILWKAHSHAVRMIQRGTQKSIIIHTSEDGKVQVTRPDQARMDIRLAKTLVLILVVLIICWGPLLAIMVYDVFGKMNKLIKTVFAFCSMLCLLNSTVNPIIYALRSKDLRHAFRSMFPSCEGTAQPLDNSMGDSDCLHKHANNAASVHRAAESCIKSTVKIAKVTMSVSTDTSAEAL

| SMILES | pKi ± SEM [1, 3] | Ki (μM, 95% CI) [1] | other results |
| --- | --- | --- | --- |
| Cc1c(O[C@H](C)C(=O)NC[C@@H](O)c2ccccc2)ccc2c(-c3ccccc3)cc(=O)oc12 (racemic) [Compound 25] | 4.86 ± 0.09 | – | Ki ([1]; read-out: Ki (μM, 95% CI)): 13.9 µM |
| Cc1ccc(COc2ccc3c(C)c(CC(=O)N4CCC5(O)CCCCC5C4)c(=O)oc3c2C)cc1 (racemic) [Compound 27] | insoluble | insoluble | – |
| COc1ccc(-c2cc(=O)c3c(O)cc4c(c3o2)C(c2cccc(Cl)c2F)CC(=O)O4)cc1O (racemic) [Compound 31] | no activity | no activity | – |
| Cc1ccc(S(=O)(=O)NC(Cc2c[nH]c3ccccc23)C(=O)Oc2ccc3c4c(c(=O)oc3c2)CCC4)cc1 (racemic) [Compound 36] | 4.39 ± 0.09 | – | Ki ([1]; read-out: Ki (μM, 95% CI)): 41 µM |
| COc1cc2c(cc1OC)CN(C(=O)NC(CCSC)C(=O)NC1CCCc3ccccc31)CC2 (racemic) [Compound 39] | 4.40 ± 0.07 | – | Ki ([1]; read-out: Ki (μM, 95% CI)): 40 µM |
| CCCCNC(=O)[C@@H]1CN(C(=O)c2cccc(OC)c2)C[C@H]1c1ccc(OC)cc1OC (racemic) [Compound 42] | no activity | no activity | – |
| CCCCC/C=C\C/C=C\C/C=C\C/C=C\CCCC(=O)NCCCl [ACEA] | – | – | Ki [2, 4]: 0.0053 µM |
| Cc1c(C(=O)NN2CCOCC2)nn(-c2ccc(Cl)cc2Cl)c1-c1ccc(I)cc1 [AM-281] | – | – | Ki [2, 5]: 0.012 µM |
| CC1=CC[C@@H]2[C@@H](C1)c1c(O)cc(C34CC5CC(CC(C5)C3)C4)cc1OC2(C)C [AM-411] | – | – | Ki [2, 4]: 0.0068 µM |
| CC(C)(CCCCCCN=C=S)c1cc(O)c2c(c1)OC(C)(C)[C@@H]1CC[C@@H](CO)C[C@@H]21 [AM-841] | – | – | Ki [2, 4]: 0.00114 µM |
| Cc1c(C(=O)NN2CCCCC2)nn(-c2ccc(Cl)cc2Cl)c1-c1ccc(C#CCCO[N+](=O)[O-])cc1 [AM-6538] | – | – | Ki [2, 5]: 0.0034 µM |
| Cc1c(C(=O)NN2CCS(=O)(=O)CC2)nn(-c2ccc(Cl)cc2Cl)c1-c1ccc(C#CCCC#N)cc1 [AM-6545] | – | – | Ki [2, 5]: 0.0017 µM |
| CC1=CC[C@@H]2[C@@H](C1)c1c(O)cc(C(C)(C)CCCCCCBr)cc1OC2(C)C [AM-11542] | – | – | Ki [2, 4]: 0.00011 µM |
| CCOc1ccc(Cc2nc3cc(N(C)S(=O)(=O)c4cccs4)ccc3n2CC2CCCCC2)nc1 [AZ-11713908] | – | – | Ki [2, 4]: 0.003 µM |
| CCCCCCC(C)(C)c1cc(O)c2c(c1)OC(C)(C)[C@@H]1CC=C(C(=O)O)C[C@@H]21 [Ajulemic acid] | – | – | Ki [2, 4]: 0.0057 µM |
| CCCCC/C=C\C/C=C\C/C=C\C/C=C\CCCC(=O)NCCO [Anandamide] | – | – | Ki [2, 4]: 0.07 µM |
| COc1ccccc1Oc1c(NS(=O)(=O)c2ccc(C(C)(C)C)cc2)nc(-c2ncccn2)nc1OCCO [Compound 1, Bosentan] | – | – | Ki ([1]; Ki (μM, 95% CI)): 259 µM |
| O=c1[nH]c2ccccc2n1CCN1CCN(c2cccc(C(F)(F)F)c2)CC1 [Compound 2, Flibanserin] | – | – | Ki ([1]; Ki (μM, 95% CI)): 109 µM |
| COc1cc(C(C)=O)ccc1OCCCN1CCC(c2noc3cc(F)ccc23)CC1 [Compound 3, Iloperidone] | – | – | Ki ([1]; Ki (μM, 95% CI)): 87.9 µM; Ki [1, 6]: 89.1 µM |
| O=C1[C@@H]2[C@H]3CC[C@H](C3)[C@@H]2C(=O)N1C[C@@H]1CCCC[C@H]1CN1CCN(c2nsc3ccccc23)CC1 [Compound 4, Lurasidone] | – | – | Ki ([1]; Ki (μM, 95% CI)): 39.8 µM |
| COC(=O)C1=C(C)NC(C)=C(C(=O)OCCN(C)Cc2ccccc2)C1c1cccc([N+](=O)[O-])c1 (stereo not drawn) [Compound 5, Nicardipine] | no activity | no activity | – |
| CC(C)COc1ccc(CNC(=O)N(Cc2ccc(F)cc2)C2CCN(C)CC2)cc1 [Compound 6, Pimavanserin] | – | – | Ki [1, 6]: 33.9 µM |
| O=C(NC[C@H]1CN(c2ccc(N3CCOCC3=O)cc2)C(=O)O1)c1ccc(Cl)s1 [Compound 7, Rivaroxaban] | no activity | no activity | – |

| SMILES | pKi ± SEM [1, 3] | Ki (μM, 95% CI) [1] | other results |
| --- | --- | --- | --- |
| CCCSc1nc(N[C@@H]2C[C@H]2c2ccc(F)c(F)c2)c2nnn([C@@H]3C[C@H](OCCO)[C@@H](O)[C@H]3O)c2n1 [Compound 8, Ticagrelor] | – | – | Ki [1, 6]: 36.3 µM |
| CC(C)=CCC[C@](C)(O)[C@H]1CC[C@]2(C)[C@@H]1[C@H](O)C[C@@H]1[C@@]3(C)CC[C@H](O)C(C)(C)[C@@H]3[C@@H](O)C[C@]12C [Compound 10, (20S)-Protopanaxatriol] | no activity | no activity | – |
| O=c1cc(-c2ccc(O)cc2)oc2c(C3O[C@H](CO)[C@@H](O[C@@H]4O[C@H](CO)[C@@H](O)[C@H](O)[C@H]4O)[C@H](O)[C@H]3O)c(O)cc(O)c12 (stereo partly drawn) [Compound 11, 4”-O-Glucosylvitexin] | no activity | no activity | – |
| C[C@@]12C[C@@]3(O)O[C@@H](O1)[C@]1(COC(=O)c4ccccc4)[C@H]3C[C@@]12O[C@@H]1O[C@H](COC(=O)c2ccccc2)[C@@H](O)[C@H](O)[C@H]1O [Compound 12, Benzoylpaeoniflorin] | – | – | Ki ([1]; Ki (μM, 95% CI)): 179 µM |
| O=C(O[C@@H]1O[C@@H]2COC(=O)c3cc(O)c(O)c(O)c3-c3c(cc(O)c(O)c3O)C(=O)O[C@H]([C@H]1O)[C@@H]2O)c1cc(O)c(O)c(O)c1 [Compound 13, Corilagin] | – | – | Ki ([1]; Ki (μM, 95% CI)): 48 µM |
| CC(C)(O)[C@@H]1CC[C@](C)([C@H]2[C@@H](O)C[C@@]3(C)[C@@H]4C[C@H](O)[C@H]5C(C)(C)[C@@H](O)CC[C@@]56C[C@@]46CC[C@]23C)O1 [Compound 14, Cyclogalegenol] | 3.76 ± 0.20 | – | Ki ([1]; read-out: Ki (μM, 95% CI)): 175 µM |
| COc1cc2c(cc1OC)[C@@H](Cc1ccc(O)c(Oc3cc4c(cc3OC)CCN(C)[C@@H]4Cc3ccc(O)cc3)c1)N(C)CC2 [Compound 16, Liensinine] | no activity | no activity | – |
| COc1cc2c(=O)c3c(O)c([C@@H]4O[C@H](CO[C@@H]5OC[C@](O)(CO)[C@H]5O)[C@@H](O)[C@H](O)[C@H]4O)c(O)cc3oc2cc1O [Compound 18, Polygalaxanthone III] | no activity | no activity | – |
| OCC1=C[C@@H](O)[C@]2(O[C@@H]3O[C@H](CO)[C@@H](O)[C@H](O)[C@H]3O[C@@H]3O[C@H](CO)[C@@H](O)[C@H](O)[C@H]3O)C=CO[C@@H](O[C@@H]3O[C@H](CO)[C@@H](O)[C@H](O)[C@H]3O)[C@H]12 [Compound 19, Rehmannioside D] | no activity | no activity | – |
| COc1cc(C2Oc3cc([C@H]4Oc5cc(O)cc(O)c5C(=O)[C@@H]4O)ccc3OC2CO)ccc1O (stereo partly drawn) [Compound 20, Silybin] | – | – | Ki ([1]; Ki (μM, 95% CI)): 165 µM |
| O=c1c(O)cc([C@H]2Oc3cc(O)cc(O)c3C[C@H]2O)cc2c([C@H]3Oc4cc(O)cc(O)c4C[C@H]3O)cc(O)c(O)c12 [Compound 21, Theaflavin] | no activity | no activity | – |
| O=C(/C=C/c1ccc(O)cc1)OC[C@H]1O[C@@H](Oc2c(-c3ccc(O)cc3)oc3cc(O)cc(O)c3c2=O)[C@H](O)[C@@H](O)[C@@H]1O [Compound 22, Tiliroside] | – | – | Ki ([1]; Ki (μM, 95% CI)): 47.2 µM |
| O=C(NCCc1ccc(F)cc1)c1cc2c([nH]c3ccccc32)c(-c2ccc(F)cc2)n1 [Compound 23] | no activity | no activity | – |
| CC(C)=CCC/C(C)=C/Cc1cc(C2CC(=O)c3c(O)cc(O)cc3O2)c(O)cc1O (stereo not drawn) [Compound 24, Kuwanon E] | – | – | Ki [1, 6]: 30.9 µM |
| CC(C)=CCCC1(C)C=Cc2c(ccc(C3CC(=O)c4c(O)cc(O)cc4O3)c2O)O1 (stereo not drawn) [Compound 26, Sanggenon N] | 4.71 ± 0.05 | – | Ki ([1]; read-out: Ki (μM, 95% CI)): 19 µM |
| COc1ccc(CCNC(=O)c2[nH]c3ccccc3c2NC(=O)c2cccc(C)c2)cc1OC [Compound 28] | no activity | no activity | – |
| CCCS(=O)(=O)Nc1ccc(F)c(C(=O)c2c[nH]c3ncc(-c4ccc(Cl)cc4)cc23)c1F [Compound 29, Vemurafenib] | no activity | no activity | – |
| COc1ccc(-c2nc(C(=O)NCCc3ccc(Cl)cc3Cl)cc3c2[nH]c2ccccc23)cc1OC [Compound 35] | 4.35 ± 0.09 | – | Ki ([1]; read-out: Ki (μM, 95% CI)): 44 µM |
| COc1ccc(-c2nc3ccc(C(=O)NCc4ccc(Cl)cc4)cc3nc2-c2ccc(OC)cc2)cc1 [Compound 37] | no activity | no activity | – |
| COc1ccc(-n2c(=O)c3ccc(C(=O)NCCc4ccccc4)cc3n(Cc3ccccc3F)c2=O)cc1 [Compound 40] | no activity | no activity | – |
| O=C1NCCN1CCN1CCC(c2cn(-c3ccc(F)cc3)c3ccc(Cl)cc23)CC1 [Compound 44, Sertindole] | – | – | Ki [1, 6]: 41.7 µM |
| Cc1nc2c([nH]1)-c1ccccc1N(C(=O)c1ccc(NC(=O)c3ccccc3-c3ccccc3)cc1)CC2 [Compound 45, Conivaptan] | no activity | no activity | – |
